From ChEMBL document CHEMBL5233218, “Quinolizidine alkaloids derivatives from Sophora alopecuroides Linn: Bioactivities, structure-activity relationships and preliminary molecular mechanisms” (Eur J Med Chem, 2020)

What was measured:
Type in all cases: functional, cell-based
LS180 = assay: Cytotoxicity against human LS180 cells assessed as inhibition of cell growth by MTT assay
H22 = assay: Cytotoxicity against mouse H22 cells assessed as inhibition of cell growth by MTT assay
[1] = Antiproliferative activity against rat HSC-T6 cells
MRC5 = assay: Anti-fibrotic activity in human MRC5 cells assessed as inhibition of TGF-beta1 induced total collagen deposition
HepG2 = assay: Cytotoxicity against human HepG2 cells assessed as inhibition of cell growth by MTT assay

Compound `COC(=O)CCC[C@@H]1[C@H]2CCCN3CCC[C@@H](CN1P(=O)(Oc1ccc(Br)cc1)N(CCCl)CCCl)[C@@H]23` (some centres undefined) has an IC50 (LS180) of 2.1 µM and an IC50 (H22) of 2.1 µM.
With `CN(C(=O)CN/C=C/c1ccccc1)[C@@H]1CC(=S)N2C[C@@H]3CCCN4CCC[C@@H]([C@H]34)[C@H]2C1` the IC50 [1] was 62 µM.
`O=C1CC(n2ccc3cc(Cl)ccc32)C[C@@H]2[C@H]3CCCN4CCC[C@@H](CN12)[C@@H]34` (some centres undefined) showed an IC50 (MRC5) of 3.3 µM.
Compound `COC(=O)CCC[C@@H]1[C@H]2CCCN3CCC[C@@H](CN1P(=O)(Oc1ccc(F)cc1)N(CCCl)CCCl)[C@@H]23` (some centres undefined) has an IC50 (LS180) of 2.1 µM and an IC50 (H22) of 2.1 µM.
`COC(=O)CCC[C@@H]1[C@H]2CCCN3CCC[C@@H](CN1P(=O)(Oc1cccc(Cl)c1)N(CCCl)CCCl)[C@@H]23` (some centres undefined) showed an IC50 (LS180) of 2.1 µM and an IC50 (H22) of 2.1 µM.
Compound `COC(=O)CCC[C@@H]1[C@H]2CCCN3CCC[C@@H](CN1P(=O)(Oc1ccc4ccccc4c1)N(CCCl)CCCl)[C@@H]23` (some centres undefined) has an IC50 (LS180) of 2.1 µM and an IC50 (H22) of 2.1 µM.
Work on `COC(=O)CCC[C@@H]1[C@H]2CCCN3CCC[C@@H](CN1P(=O)(Oc1cccc4ccccc14)N(CCCl)CCCl)[C@@H]23` (some centres undefined) yielded an IC50 (LS180) of 2.1 µM and an IC50 (H22) of 2.1 µM.
Work on `O=c1[nH]cc(F)c(=O)[nH]1` [FLUOROURACIL] yielded an IC50 (HepG2) of 8.02 µM.
In the case of `O=C1CCC[C@@H]2[C@H]3CCCN4CCC[C@@H](CN12)[C@@H]34` [MATRINE], the IC50 [1] is reported as 128 µM.
